In patent US20220110315A1, “SOLUTIONS AND METHODS FOR ORGAN PRESERVATION” (priority 2019, published 2022):

Test system: isolated perfused rat hearts
Test: Isolated perfused rat heart (modified Langendorff) global ischemia/reperfusion injury
Conditions: 5 μM for 5 min prior to 30 min global ischemia and for first 5 min of 45 min reperfusion; compared to untreated control I/R hearts; n=7

## Oc1ccc2c3c1O[C@H]1c4[nH]c5ccccc5c4C[C@@]4(O)[C@@H](C2)N(CC2CC2)CC[C@]314 [naltrindole]
  infarct size (TTC staining at end of reperfusion): reduced infarct size
  post-reperfused cardiac function (+dP/dtmax, -dP/dtmin, LVDP, LVEDP): significantly restored
